{"source": "patent US20230263822A1", "about": "“MODULATION OF FACTOR 11 EXPRESSION” (Ionis Pharmaceuticals, Inc., priority 2008, published 2023)", "note": "Strand notation (5' to 3'): a small letter for the sugar, then the base; units joined by * are phosphorothioate-linked, units joined directly phosphodiester-linked; [ ] holds rarer units or linkages, { } end groups; capitals alone tell only the bases. e = 2'-O-(2-methoxyethyl) (MOE); [5mC] = 5-methylcytosine; d = 2'-deoxy (DNA)", "data": [{"test_system": "human Factor 11 mRNA", "assay": "Antisense inhibition of human Factor 11 in HepG2 cells by microwalk gapmers, lipofectin, 75 nM (Example 3)", "format": "cell-based", "details": "HepG2 cells, lipofectin, gapmers targeted to nucleobases 1275 to 1318 of SEQ ID NO: 1", "how_it_was_run": "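HepG2 cells (10,000/well) were transfected via lipofectin with 75 nM 20-mer MOE gapmers (phosphorothioate, 5-methyl-C) for about 24 h. Factor 11 mRNA was measured by qRT-PCR, normalized to RIBOGREEN total RNA, and given as percent inhibition versus untreated cells.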", "units": {"% inhibition": "%"}, "values": [{"substance": "416853 (antisense eT*eT*eG*eG*eT*dG*d[5mC]*dA*d[5mC]*dA*dG*dT*dT*dT*d[5mC]*eT*eG*eG*e[5mC]*eA) [compound 416853]", "% inhibition": 91}, {"substance": "416854 (antisense eA*eT*eT*eG*eG*dT*dG*d[5mC]*dA*d[5mC]*dA*dG*dT*dT*dT*e[5mC]*eT*eG*eG*e[5mC]) [compound 416854]", "% inhibition": 90}, {"substance": "416855 (antisense e[5mC]*eA*eT*eT*eG*dG*dT*dG*d[5mC]*dA*d[5mC]*dA*dG*dT*dT*eT*e[5mC]*eT*eG*eG) [compound 416855]", "% inhibition": 87}, {"substance": "416862 (antisense eA*eG*e[5mC]*eG*eG*dA*d[5mC]*dG*dG*d[5mC]*dA*dT*dT*dG*dG*eT*eG*e[5mC]*eA*e[5mC]) [compound 416862]", "% inhibition": 90}]}, {"test_system": "human Factor 11 mRNA", "assay": "Antisense inhibition of human Factor 11 in HepG2 cells, electroporation, 8,000 nM (Example 30)", "format": "cell-based", "details": "electroporation, 8,000 nM antisense oligonucleotide", "description": "These microwalk gapmers were tested in vitro. Cultured HepG2 cells at a density of 20,000 cells per well were transfected using electroporation with 8,000 nM antisense oligonucleotide. After a treatment period of approximately 24 hours, RNA was isolated from the cells and Factor 11 mRNA levels were measured by quantitative real-time PCR. Factor 11 mRNA levels were adjusted according to total RNA content, as measured by RIBOGREEN. Results are presented as percent inhibition of Factor 11, relative to untreated control cells.\nThe chimeric antisense oligonucleotides in Table 44 were designed as 5-10-5 MOE, 5-8-5 and 6-8-6 MOE gapmers. The first two listed gapmers in Table 44 are the original gapmers (ISIS 416850 and ISIS 416858) from which ISIS 445493-445543 were designed via microwalk, and are designated by an asterisk. The 5-10-5 gapmers are 20 nucleotides in length, wherein the central gap segment is comprised of ten 2′-deoxynucleotides and is flanked on both sides (in the 5′ and 3′ directions) by wings comprising five nucleotides each. The 5-8-5 gapmers are 18 nucleotides in length, wherein the central gap segment is comprised of eight 2′-deoxynucleotides and is flanked on both sides (in the 5′ and 3′ directions) by wings comprising five nucleotides each. The 6-8-6 gapmers are 20 nucleotides in length, wherein the central gap segment is comprised of eight 2′-deoxynucleotides and is flanked on both sides (in the 5′ and 3′ directions) by wings comprising six nucleotides each. For each of the motifs (5-10-5, 5-8-5 and 6-8-6), each nucleotide in the 5′ wing segment and each nucleotide in the 3′ wing segment has a 2′-MOE modification. The internucleoside linkages throughout each gapmer are phosphorothioate (P=S) linkages. All cytidine residues throughout each gapmer are 5-methylcytidines. “Human Target start site” indicates the 5′-most nucleotide to which the gapmer is targeted in the human sequence. “Human Target stop site” indicates the 3′-most nucleotide to which the gapmer is targeted in the human sequence. Each gapmer listed in Table 44 is targeted to SEQ ID NO: 1 (GENBANK Accession No. NM_000128.3). Each gapmer is Table 44 is also fully cross-reactive with the rhesus monkey Factor 11 gene sequence, designated herein as SEQ ID NO: 274 (exons 1-15 GENBANK Accession No. NW_001118167.1). ‘Rhesus monkey start site’ indicates the 5′-most nucleotide to which the gapmer is targeted in the rhesus monkey sequence. ‘Rhesus monkey stop site’ indicates the 3′-most nucleotide to which the gapmer is targeted to the rhesus monkey sequence.", "units": {"Percent inhibition of human Factor 11 mRNA levels": "%"}, "values": [{"substance": "416853 (antisense eT*eT*eG*eG*eT*dG*d[5mC]*dA*d[5mC]*dA*dG*dT*dT*dT*d[5mC]*eT*eG*eG*e[5mC]*eA) [compound 416853]", "Percent inhibition of human Factor 11 mRNA levels": 84}, {"substance": "416854 (antisense eA*eT*eT*eG*eG*dT*dG*d[5mC]*dA*d[5mC]*dA*dG*dT*dT*dT*e[5mC]*eT*eG*eG*e[5mC]) [compound 416854]", "Percent inhibition of human Factor 11 mRNA levels": 86}, {"substance": "416855 (antisense e[5mC]*eA*eT*eT*eG*dG*dT*dG*d[5mC]*dA*d[5mC]*dA*dG*dT*dT*eT*e[5mC]*eT*eG*eG) [compound 416855]", "Percent inhibition of human Factor 11 mRNA levels": 85}, {"substance": "416862 (antisense eA*eG*e[5mC]*eG*eG*dA*d[5mC]*dG*dG*d[5mC]*dA*dT*dT*dG*dG*eT*eG*e[5mC]*eA*e[5mC]) [compound 416862]", "Percent inhibition of human Factor 11 mRNA levels": 89}, {"substance": "445508 (antisense eG*eG*eA*e[5mC]*eG*eG*d[5mC]*dA*dT*dT*dG*dG*dT*dG*e[5mC]*eA*e[5mC]*eA*eG*eT) [compound 445508]", "Percent inhibition of human Factor 11 mRNA levels": 81}, {"substance": "445510 (antisense eG*e[5mC]*eG*eG*eA*e[5mC]*dG*dG*d[5mC]*dA*dT*dT*dG*dG*eT*eG*e[5mC]*eA*e[5mC]*eA) [compound 445510]", "Percent inhibition of human Factor 11 mRNA levels": 88}, {"substance": "445511 (antisense eA*eG*e[5mC]*eG*eG*eA*d[5mC]*dG*dG*d[5mC]*dA*dT*dT*dG*eG*eT*eG*e[5mC]*eA*e[5mC]) [compound 445511]", "Percent inhibition of human Factor 11 mRNA levels": 77}, {"substance": "445512 (antisense e[5mC]*eA*eG*e[5mC]*eG*eG*dA*d[5mC]*dG*dG*d[5mC]*dA*dT*dT*eG*eG*eT*eG*e[5mC]*eA) [compound 445512]", "Percent inhibition of human Factor 11 mRNA levels": 79}, {"substance": "445514 (antisense eG*eG*e[5mC]*eA*eG*e[5mC]*dG*dG*dA*d[5mC]*dG*dG*d[5mC]*dA*eT*eT*eG*eG*eT*eG) [compound 445514]", "Percent inhibition of human Factor 11 mRNA levels": 81}, {"substance": "445515 (antisense eT*eG*eG*e[5mC]*eA*eG*d[5mC]*dG*dG*dA*d[5mC]*dG*dG*d[5mC]*eA*eT*eT*eG*eG*eT) [compound 445515]", "Percent inhibition of human Factor 11 mRNA levels": 75}, {"substance": "445516 (antisense e[5mC]*eT*eG*eG*e[5mC]*eA*dG*d[5mC]*dG*dG*dA*d[5mC]*dG*dG*e[5mC]*eA*eT*eT*eG*eG) [compound 445516]", "Percent inhibition of human Factor 11 mRNA levels": 79}, {"substance": "445517 (antisense eA*e[5mC]*eT*eG*eG*e[5mC]*dA*dG*d[5mC]*dG*dG*dA*d[5mC]*dG*eG*e[5mC]*eA*eT*eT*eG) [compound 445517]", "Percent inhibition of human Factor 11 mRNA levels": 74}, {"substance": "445518 (antisense eA*eG*eT*eT*eT*d[5mC]*dT*dG*dG*d[5mC]*dA*dG*dG*e[5mC]*e[5mC]*eT*e[5mC]*eG) [compound 445518]", "Percent inhibition of human Factor 11 mRNA levels": 75}, {"substance": "445519 (antisense e[5mC]*eA*eG*eT*eT*dT*d[5mC]*dT*dG*dG*d[5mC]*dA*dG*eG*e[5mC]*e[5mC]*eT*e[5mC]) [compound 445519]", "Percent inhibition of human Factor 11 mRNA levels": 81}, {"substance": "445520 (antisense eA*e[5mC]*eA*eG*eT*dT*dT*d[5mC]*dT*dG*dG*d[5mC]*dA*eG*eG*e[5mC]*e[5mC]*eT) [compound 445520]", "Percent inhibition of human Factor 11 mRNA levels": 82}, {"substance": "445521 (antisense e[5mC]*eA*e[5mC]*eA*eG*dT*dT*dT*d[5mC]*dT*dG*dG*d[5mC]*eA*eG*eG*e[5mC]*e[5mC]) [compound 445521]", "Percent inhibition of human Factor 11 mRNA levels": 87}, {"substance": "445523 (antisense eT*eG*e[5mC]*eA*e[5mC]*dA*dG*dT*dT*dT*d[5mC]*dT*dG*eG*e[5mC]*eA*eG*eG) [compound 445523]", "Percent inhibition of human Factor 11 mRNA levels": 73}, {"substance": "445524 (antisense eG*eT*eG*e[5mC]*eA*d[5mC]*dA*dG*dT*dT*dT*d[5mC]*dT*eG*eG*e[5mC]*eA*eG) [compound 445524]", "Percent inhibition of human Factor 11 mRNA levels": 75}, {"substance": "445525 (antisense eG*eG*eT*eG*e[5mC]*dA*d[5mC]*dA*dG*dT*dT*dT*d[5mC]*eT*eG*eG*e[5mC]*eA) [compound 445525]", "Percent inhibition of human Factor 11 mRNA levels": 85}, {"substance": "445526 (antisense eT*eG*eG*eT*eG*d[5mC]*dA*d[5mC]*dA*dG*dT*dT*dT*e[5mC]*eT*eG*eG*e[5mC]) [compound 445526]", "Percent inhibition of human Factor 11 mRNA levels": 81}, {"substance": "445527 (antisense eT*eT*eG*eG*eT*dG*d[5mC]*dA*d[5mC]*dA*dG*dT*dT*eT*e[5mC]*eT*eG*eG) [compound 445527]", "Percent inhibition of human Factor 11 mRNA levels": 70}, {"substance": "445528 (antisense eA*eT*eT*eG*eG*dT*dG*d[5mC]*dA*d[5mC]*dA*dG*dT*eT*eT*e[5mC]*eT*eG) [compound 445528]", "Percent inhibition of human Factor 11 mRNA levels": 73}, {"substance": "445529 (antisense e[5mC]*eA*eT*eT*eG*dG*dT*dG*d[5mC]*dA*d[5mC]*dA*dG*eT*eT*eT*e[5mC]*eT) [compound 445529]", "Percent inhibition of human Factor 11 mRNA levels": 85}, {"substance": "445533 (antisense eA*e[5mC]*eG*eG*e[5mC]*dA*dT*dT*dG*dG*dT*dG*d[5mC]*eA*e[5mC]*eA*eG*eT) [compound 445533]", "Percent inhibition of human Factor 11 mRNA levels": 87}, {"substance": "445534 (antisense eG*eA*e[5mC]*eG*eG*d[5mC]*dA*dT*dT*dG*dG*dT*dG*e[5mC]*eA*e[5mC]*eA*eG) [compound 445534]", "Percent inhibition of human Factor 11 mRNA levels": 82}, {"substance": "445535 (antisense eG*eG*eA*e[5mC]*eG*dG*d[5mC]*dA*dT*dT*dG*dG*dT*eG*e[5mC]*eA*e[5mC]*eA) [compound 445535]", "Percent inhibition of human Factor 11 mRNA levels": 83}, {"substance": "445536 (antisense e[5mC]*eG*eG*eA*e[5mC]*dG*dG*d[5mC]*dA*dT*dT*dG*dG*eT*eG*e[5mC]*eA*e[5mC]) [compound 445536]", "Percent inhibition of human Factor 11 mRNA levels": 82}, {"substance": "445537 (antisense eG*e[5mC]*eG*eG*eA*d[5mC]*dG*dG*d[5mC]*dA*dT*dT*dG*eG*eT*eG*e[5mC]*eA) [compound 445537]", "Percent inhibition of human Factor 11 mRNA levels": 78}, {"substance": "445538 (antisense eA*eG*e[5mC]*eG*eG*dA*d[5mC]*dG*dG*d[5mC]*dA*dT*dT*eG*eG*eT*eG*e[5mC]) [compound 445538]", "Percent inhibition of human Factor 11 mRNA levels": 80}, {"substance": "445539 (antisense e[5mC]*eA*eG*e[5mC]*eG*dG*dA*d[5mC]*dG*dG*d[5mC]*dA*dT*eT*eG*eG*eT*eG) [compound 445539]", "Percent inhibition of human Factor 11 mRNA levels": 79}, {"substance": "445540 (antisense eG*e[5mC]*eA*eG*e[5mC]*dG*dG*dA*d[5mC]*dG*dG*d[5mC]*dA*eT*eT*eG*eG*eT) [compound 445540]", "Percent inhibition of human Factor 11 mRNA levels": 74}, {"substance": "445541 (antisense eG*eG*e[5mC]*eA*eG*d[5mC]*dG*dG*dA*d[5mC]*dG*dG*d[5mC]*eA*eT*eT*eG*eG) [compound 445541]", "Percent inhibition of human Factor 11 mRNA levels": 80}, {"substance": "445542 (antisense eT*eG*eG*e[5mC]*eA*dG*d[5mC]*dG*dG*dA*d[5mC]*dG*dG*e[5mC]*eA*eT*eT*eG) [compound 445542]", "Percent inhibition of human Factor 11 mRNA levels": 83}, {"substance": "445543 (antisense e[5mC]*eT*eG*eG*e[5mC]*dA*dG*d[5mC]*dG*dG*dA*d[5mC]*dG*eG*e[5mC]*eA*eT*eT) [compound 445543]", "Percent inhibition of human Factor 11 mRNA levels": 74}]}]}
